According to US6998415B2, “Substituted sulfonylphenylheterocycles as cyclooxygenase-2 and 5-lipoxygenase inhibitors” (Pharmacia Corporation, priority 1996, dated 2006):

Legend:
[1] = target: T1, COX-2 (UniProt P35354); assay: Assay for COX-2 activity in vitro (PGE2 ELISA, recombinant enzyme); type: biochemical, human or murine; conditions: recombinant COX-2, arachidonic acid 10 μM, pre-incubation 10–20 minutes
T1 sequence (P35354 1-604): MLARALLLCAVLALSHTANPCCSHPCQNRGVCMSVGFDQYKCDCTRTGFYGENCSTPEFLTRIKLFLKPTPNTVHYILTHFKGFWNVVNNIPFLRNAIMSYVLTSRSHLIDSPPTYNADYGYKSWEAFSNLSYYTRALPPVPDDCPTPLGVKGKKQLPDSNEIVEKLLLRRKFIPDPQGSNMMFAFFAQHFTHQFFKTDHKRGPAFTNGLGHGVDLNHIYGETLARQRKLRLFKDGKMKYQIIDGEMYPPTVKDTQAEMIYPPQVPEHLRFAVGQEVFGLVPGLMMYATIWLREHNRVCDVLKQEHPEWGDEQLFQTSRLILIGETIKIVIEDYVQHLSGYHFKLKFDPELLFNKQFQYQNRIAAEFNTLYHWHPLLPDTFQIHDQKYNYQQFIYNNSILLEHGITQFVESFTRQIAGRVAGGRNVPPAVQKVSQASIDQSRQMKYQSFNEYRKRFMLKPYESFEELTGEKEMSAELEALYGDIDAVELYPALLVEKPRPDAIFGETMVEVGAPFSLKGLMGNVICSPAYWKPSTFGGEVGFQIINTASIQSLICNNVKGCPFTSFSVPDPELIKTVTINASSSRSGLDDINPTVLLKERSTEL
Experimental: Evaluation of COX-1 and COX-2 Activity in vitro
The COX-2 inhibit on activity of the compounds or this invention illustrated in the Examples was determined by the following methods. a. Preparation of Recombinant COX Baculoviruses
(§1) Recombinant COX-1 and COX-2 were prepared as described by Gierse et al, [J. Biochem., 305, 479–84 (1995)]. A 2.0 kb fragment containing the coding region of either human or murine COX-1 or human or murine COX-2 was cloned into a BamHI site of the baculovirus transfer vector pVL1393 (Invitrogen) to generate the baculovirus transfer vectors for COX-1 and COX-2 in a manner similar to the method of D. R. O'Reilly et al (Baculovirus Expression Vectors: A Laboratory Manual (1992)). Recombinant baculoviruses were isolated by transfecting 4 μg of baculovirus transfer vector DNA into SF9 insect cells (2×10^8) along with 200 ng of linearized baculovirus plasmid DNA by the calcium phosphate method. See M. D. Summers and G. E. Smith, A Manual of Methods for Baculovirus Vectors and Insect Cell Culture Procedures, Texas Agric. Exp. Station Bull. 1555 (1987). Recombinant viruses were purified by three rounds of plaque purification and high titer (10^7–10^8 pfu/ml) stocks of virus were prepared. For large scale production, SF9 insect cells were infected in 10 liter fermentors (0.5×10^6/ml) with the recombinant baculovirus stock such that the multiplicity of infection was 0.1. After 72 hours the cells were centrifuged and the cell pellet homogenized in Tris/Sucrose (50 mM: 25%, pH 8.0) containing 1% 3-[(3-cholamidopropyl)dimethylammonio]-1-propanesulfonate (CHAPS). The homogenate was centrifuged at 10,000×G for 30 minutes, and the resultant supernatant was stored at −80° C. before being assayed for COX activity. […]
(§2) b. Assay for COX-1 and COX-2 Activity
(§3) COX activity was assayed as PGE2 formed/μg protein/time using an ELISA to detect the prostaglandin released. CHAPS-solubilized insect cell membranes containing the appropriate COX enzyme were incubated in a potassium phosphate buffer (50 mM, pH 8.0) containing epinephrine, phenol, and heme with the addition of arachidonic acid (10 μM). Compounds were pre-incubated with the enzyme for 10–20 minutes prior to the addition of arachidonic acid. Any reaction between the arachidonic acid and the enzyme was stopped after ten minutes at 37° C./room temperature by transferring 40 μl of reaction mix into 160 μl ELISA buffer and 25 μM indomethacin. The PGE2 formed was measured by standard ELISA technology (Cayman Chemical).

[2] = target: COX-1 (UniProt P23219); assay: Assay for COX-1 activity in vitro (PGE2 ELISA, recombinant enzyme); type: biochemical, human or murine; conditions: recombinant COX-1, arachidonic acid 10 μM, pre-incubation 10–20 minutes
Experimental: Evaluation of COX-1 and COX-2 Activity in vitro a. Preparation of Recombinant COX Baculoviruses
as §1, §2, §3

[3] = target: T2, 5-lipoxygenase (5-LO) (Homo sapiens, UniProt P09917); assay: Assay for 5-lipoxygenase activity: calcium ionophore-induced LTB4 production in human whole blood; type: cell-based; conditions: A-23187 (20 μg/ml)-induced LTB4 in human whole blood; mean IC50
T2 construct: calcium ionophore-induced Leukotriene B4 (LTB4) production in human whole blood; endogenous in cells; host or cells: human whole blood (healthy donors), diluted 1:4 in RPMI 1640
T2 sequence (P09917 1-674): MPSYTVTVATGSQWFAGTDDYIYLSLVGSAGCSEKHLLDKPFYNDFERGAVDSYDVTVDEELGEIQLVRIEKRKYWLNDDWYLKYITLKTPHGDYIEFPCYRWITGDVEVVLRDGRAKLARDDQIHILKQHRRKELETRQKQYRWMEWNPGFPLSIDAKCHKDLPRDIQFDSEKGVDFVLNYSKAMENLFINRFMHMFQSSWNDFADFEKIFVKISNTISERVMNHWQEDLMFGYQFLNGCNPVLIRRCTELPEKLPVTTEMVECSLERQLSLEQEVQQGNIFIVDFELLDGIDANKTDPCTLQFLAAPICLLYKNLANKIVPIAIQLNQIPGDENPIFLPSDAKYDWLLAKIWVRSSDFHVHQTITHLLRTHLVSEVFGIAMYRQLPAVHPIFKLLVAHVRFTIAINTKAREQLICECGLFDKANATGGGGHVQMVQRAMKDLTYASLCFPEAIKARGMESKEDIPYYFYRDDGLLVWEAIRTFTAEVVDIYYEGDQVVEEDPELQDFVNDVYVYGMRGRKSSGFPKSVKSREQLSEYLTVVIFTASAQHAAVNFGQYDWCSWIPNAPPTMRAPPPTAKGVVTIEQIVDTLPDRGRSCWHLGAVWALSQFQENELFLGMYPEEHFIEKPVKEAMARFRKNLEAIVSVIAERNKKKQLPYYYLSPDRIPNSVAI
Experimental: Assay for 5-Lipoxygenase Activity
The 5-lipoxygenase (5-LO) activity of the compounds were determined by the calcium ionophore-induced Leukotriene B4 (LTB4) production in human whole blood. Venous blood was collected from healthy human donors using heparin as an anti-coagulant. Human blood samples (0.2 ml of a 1:4 dilution in RPMI 1640 medium) were incubated in 96-well culture plates for 15 minutes at 37° C. with test compounds dissolved in ethanol (EtOH; final concentration<1%), or vehicle. Typically 7 concentrations of test compounds were examined in duplicate. A-23187 [Sigma] was added to the blood to a final concentration of 20 μg/ml, and the mixtures were incubated for 10 minutes at 37° C. The reaction was stopped by placing the samples on ice. The samples were then centrifuged at 800×g at 4° C. for 10 minutes to pellet the cells, and the supernatants were recovered for quantitation of LTB4 by LISA (Cayman Chemical Co.; sensitivity 3 pg/ml). IC50's were estimated from a four parameter logistic model with two parameters fixed, the minimum (0% inhibition) and maximum (100% inhibition). The IC50 value is the concentration that produces 50% inhibition between the fixed values of the minimum and maximum. Data is reported as the mean IC50 for each compound.

Row | SMILES | IC50 [1] | IC50 [2] | IC50 [3] | melting point
1 | COC1(c2cccc(OCc3nc(-c4ccc(F)cc4)c(-c4ccc(S(C)(=O)=O)cc4)o3)c2)CCOCC1 [Example 2, 4-(4-Fluorophenyl)-5-(4-(methylsulfonyl)phenyl)-2-[[3-(3,4,5,6-tetrahydro-4-methoxy-2H-pyran-4-yl)phenoxy]methyl]oxazole] | 200 nM | > 10000 nM | 50 nM | 
2 | COC(=O)C(Cc1cccc(C2(OC)CCOCC2)c1)c1nc(-c2ccccc2)c(-c2ccc(S(N)(=O)=O)cc2)o1 (stereo not drawn) [Example 9, Methyl 5-[4-(aminosulfonyl)phenyl]-α-[[3-(3,4,5,6-tetrahydro-4-methoxypyran-4-yl)phenyl]methyl]-4-phenyloxazole-2-acetate] | 10000 nM | 80000 nM | > 10000 nM | 88.7 to 94.9 °C
3 | COC1(c2cccc(COCc3nc(-c4ccccc4)c(-c4ccc(S(N)(=O)=O)cc4)o3)c2)CCOCC1 [Example 17, 4-[2-[[[3-(3,4,5,6-Tetrahydro-4-methoxypyran-4-yl)phenylmethyl]oxy]methyl]-4-phenyloxazol-5-yl]benzenesulfonamide] | 500 nM | > 100000 nM | 9800 nM | 62.1 to 71.2 °C
4 | COC1(c2cc(F)cc(OCc3nc(-c4ccccc4)c(-c4ccc(S(N)(=O)=O)cc4)o3)c2)CCOCC1 [Example 8, 4-[2-[[3-Fluoro-5-(3,4,5,6-tetrahydro-4-methoxypyran-4-yl)phenoxy]methyl]-4-phenyloxazol-5-yl]benzenesulfonamide] | < 100 nM | 1300 nM | 300 nM | 70 to 80 °C
5 | COc1cccc(OCc2cc(-c3ccc(Cl)cc3)n(-c3ccc(S(N)(=O)=O)cc3)n2)c1 [Example 7, 4-[5-(4-Chlorophenyl)-3-(3-methoxyphenyl)oxymethyl-1H-pyrazol-1-yl]benzenesulfonamide] | < 100 nM | 3800 nM | 650 nM | 
6 | COC1(c2cccc(Oc3nc(-c4ccccc4)c(-c4ccc(S(N)(=O)=O)cc4)o3)c2)CCOCC1 [Example 5, 4-[2-[3-(4-Methoxy-3,4,5,6-tetrahydro-2H-pyran-4-yl)phenoxy]-4-phenyl-5-oxazolyl]benzenesulfonamide] | < 100 nM | < 100 nM | 17000 nM | 145 to 147 °C
7 | COC1(c2cc(F)cc(OCC(=O)NCCc3nc(-c4ccccc4)c(-c4ccc(S(N)(=O)=O)cc4)o3)c2)CCOCC1 [Example 22] | 1100 nM | > 100000 nM | > 10000 nM | 
8 | COC1(c2cccc(CSCc3nc(-c4ccccc4)c(-c4ccc(S(N)(=O)=O)cc4)o3)c2)CCOCC1 [Example 18, 4-[2-[[[3-(3,4,5,6-Tetrahydro-4-methoxypyran-4-yl)phenylmethyl]thio]methyl]-4-phenyloxazol-5-yl]benzenesulfonamide] |  |  |  | 77.2 to 81.7 °C

Second part, the compound after the results:

Row | IC50 [1] | IC50 [2] | IC50 [3] | melting point | SMILES
9 | < 100 nM | 2200 nM | 440 nM |  | COc1cccc(SCc2cc(-c3ccc(Cl)cc3)n(-c3ccc(S(N)(=O)=O)cc3)n2)c1 [Example 6, 4-[5-(4-Chlorophenyl)-3-(3-methoxyphenyl)thiomethyl-1H pyrazol-1-yl]benzenesulfonamide]
10 | < 100 nM | 2300 nM | > 10000 nM | 60.9 to 66.4 °C | COC1(c2cccc(CSCCc3nc(-c4ccccc4)c(-c4ccc(S(N)(=O)=O)cc4)o3)c2)CCOCC1 [Example 19, 4-[2-[[[3-(3,4,5,6-Tetrahydro-4-methoxypyran-4-yl)phenylmethyl]thio]ethyl]-4-phenyloxazol-5-yl]benzenesulfonamide]
11 | < 100 nM | 38000 nM | 150 nM |  | COC1(c2cc(F)cc(OCc3cc(-c4ccc(Cl)cc4)n(-c4ccc(S(N)(=O)=O)cc4)n3)c2)CCOCC1 [Example 1, 4-[5-(4-Chlorophenyl)-3-[[3-fluoro-5-(3,4,5,6-tetrahydro-4-methoxy-2H-pyran-4-yl)phenoxy]methyl]-1H-pyrazol-1-yl]benzenesulfonamide]
12 | < 100 nM | > 100000 nM | > 10000 nM |  | COC1(c2cc(F)cc(OCc3onc(-c4ccccc4)c3-c3ccc(S(N)(=O)=O)cc3)c2)CCOCC1 [Example 16, 4-[5-[[3-Fluoro-5-(3,4,5,6-tetrahydro-4-methoxypyran-4-yl)phenoxy]methyl]-3-phenylisoxazol-4-yl]benzenesulfonamide]
13 | < 100 nM | 5000 nM | 200 nM | 70 to 72 °C | COC1(c2cc(F)cc(OCc3nc(-c4ccc(F)cc4)c(-c4ccc(S(N)(=O)=O)cc4)o3)c2)CCOCC1 [Example 14, 4-[2-[[3-Fluoro-5-(3,4,5,6-tetrahydro-4-methoxypyran-4-yl)phenoxy]methyl]-4-(4-fluorophenyl)oxazol-5-yl]benzenesulfonamide]
14 | < 100 nM | > 100000 nM | > 10000 nM | 86 to 100 °C | COC1(c2cc(F)cc(OCC#Cc3ccc(Cc4nc(-c5ccccc5)c(-c5ccc(S(N)(=O)=O)cc5)o4)cc3)c2)CCOCC1 [Example 12, 4-[2-[[4-[3-[3-Fluoro-5-(3,4,5,6-tetrahydro-4-methoxypyran-4-yl)phenoxy]-1-propynyl]phenyl]methyl]-4-phenyloxazol-5-yl]benzenesulfonamide]
